According to US9890185B2, “Urea derivatives useful as kinase inhibitors” (Respivert Limited, priority 2013, dated 2018):
Values after ≈ are worked out from the molar mass of the structure shown. Read-outs that look alike come from different tables or passages of the source.

Tests used:
p38 MAPK α = p38 MAPK α (Homo sapiens (Human), UniProt Q16539); experiment: KINOMEscan enzyme binding assay (p38 MAPKα); conditions: KINOMEscan technology; read-out: Dissociation Constant, p38 MAPK α
Procedure: (§1) Kinase enzyme binding activities of compounds disclosed herein may be determined using a proprietary assay which measures active site-directed competition binding to an immobilized ligand (Fabian, M. A. et al., Nature Biotechnol., 2005, 23:329-336). These assays may be conducted by DiscoverX (formerly Ambit; San Diego, Calif.). The percentage inhibition produced by incubation with a test compound may be calculated relative to the non-inhibited control.

Syk = Syk (Homo sapiens (Human), UniProt P43405); experiment: KINOMEscan enzyme binding assay (Syk); conditions: KINOMEscan technology; read-out: Dissociation Constant, Syk
Procedure: as §1

d-U937 cells = experiment: Accumulation of β catenin in d-U937 cells (assay m); format: cell-based, human; conditions: percentage relative to Reference Compound at 1 μg/mL
In short: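 PMA-differentiated (100 ng/mL, 48–72 hr) human U937 macrophage-type cells treated with test compound or vehicle for 18 hr. β-catenin measured by in-cell ELISA (anti-β-catenin, HRP secondary, TMB, OD450–655). Signal corrected for cell number by dividing by crystal violet OD595.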

PBMCs = experiment: IFN gamma release in CD3/CD28 stimulated PBMC cells (assay c); format: cell-based; conditions: Homo sapiens, read-out: IC50 Values for Inhibition of Cytokine Release, PBMCs IFNγ
In short: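 Steps: PBMCs separated from healthy whole blood by density gradient; seeded onto anti-CD3/CD28 coating (0.3 and 3 μg/mL respectively); compound added; incubated 3 days in standard tissue culture; supernatant cytokines quantified by sandwich ELISA, IC50 fitted.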

HT29 cells = experiment: IL-1β-induced IL-8 release in HT29 cells (assay d); format: cell-based; conditions: Homo sapiens, HT-29; IL-1β-stimulated HT29 cells; read-out: IC50 Values for Inhibition of Cytokine Release, HT29 cells IL-8
Procedure: HT29 cells, a human colon adenocarcinoma cell line, are plated in a 96 well plate (24 hrs) and pre-treated with compounds at the desired concentration for 2 hours before addition of 5 ng/mL of IL-1β (Abcam) for 24 hours. Supernatants are harvested for IL-8 quantification by Sandwich ELISA (Duo-set, R&D System). The IC50 is determined from the dose response curve.

[1] = Solubility in fasted-state simulated colonic fluid (FaSSCoF); format: physicochemical; conditions: thermodynamic from solid, pH 6.5, 25° C.; for solubility thermodynamic at 24 h: 25 °C, pH 6.5, fassgf or other biorelevant; for solubility at 24 h: fassgf or other biorelevant, read-out: Solubility in the FaSSCoF medium
Procedure: The solubilities of compounds of the invention in FaSSCoF at pH 6.5 are determined using a modification of a previously-reported procedure (Vertzoni, M., et al. Pharm. Res. 2010, 27, 2187-2196). In place of the bile salt extract employed in the original procedure (which extract is no longer available), the modified procedure uses a mixture of sodium taurochlorate (0.15 g), glycocholic acid (0.15 g), ursodeoxycholic acid (0.05 g), cholic acid (0.05 g), and glycodeoxycholic acid (0.05 g). These five bile acids are ground together with a mortar and pestle to produce a fine white powder that is incorporated into the FaSSCoF, as outlined below.
Tris(hydroxymethyl)aminomethane (Tris; 0.275 g) and maleic acid (0.44 g) are dissolved in water (35 mL) to give a solution whose pH is adjusted to 6.5 by treatment with 0.5M NaOH (ca. 12 mL). The solution is then made up to 50 mL with water. A portion of this Tris/maleate buffer solution (ca. 25 mL) is added to a 0.5 L round-bottomed flask, before being treated with 0.00565 g of the bile acid mixture described above. Solutions of phosphatidylcholine (0.0111 g) in DCM (0.15 mL) and palmitic acid (0.0013 g) in DCM (0.15 mL) are added, then the organic solvent is evaporated off under reduced pressure at 40° C. until a clear solution, with no perceptible DCM odour, is achieved. The volume of the evaporated solution is adjusted to 50 mL by addition of the remainder of Tris/maleate buffer, then BSA (0.115 g) is added, before being dissolved by gentle agitation.
Test compounds are suspended in the pH 6.5 FaSSCoF medium to give a maximum final concentration of ca. 6 mg/mL. The suspensions are equilibrated at 25° C. for 24 h, before being filtered through a glass fibre C filter. The filtrates are then diluted as appropriate for injection and quantification by HPLC with reference to a standard. Different volumes of the standard, diluted and undiluted sample solutions are injected and the solubilities are calculated using the peak areas determined by integration of the peak found at the same retention time as the principal peak in the standard injection.

[2] = Run 1, read-out: pH 6.5 FaSSCoF Solubility Run 1
[3] = Run 2, read-out: pH 6.5 FaSSCoF Solubility Run 2

Sequence of p38 MAPK α (Q16539 whole entry): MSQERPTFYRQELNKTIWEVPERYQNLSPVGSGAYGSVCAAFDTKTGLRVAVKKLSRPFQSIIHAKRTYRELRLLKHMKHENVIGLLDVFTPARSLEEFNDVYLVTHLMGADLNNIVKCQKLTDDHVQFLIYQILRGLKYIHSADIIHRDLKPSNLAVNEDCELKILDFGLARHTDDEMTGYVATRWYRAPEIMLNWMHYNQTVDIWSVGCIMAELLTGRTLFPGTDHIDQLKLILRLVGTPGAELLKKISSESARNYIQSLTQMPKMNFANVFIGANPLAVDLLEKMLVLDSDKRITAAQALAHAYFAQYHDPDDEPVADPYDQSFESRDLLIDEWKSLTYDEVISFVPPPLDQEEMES

Row | Kd (p38 MAPK α) [nM] | Kd (Syk) [nM] | IC50 (HT29 cells) [nM] | solubility thermodynamic at 24 h [1, 2] [µg/mL] | solubility thermodynamic at 24 h [1, 3] [µg/mL] | solubility at 24 h [1] [µg/mL] | Compound | % β-catenin induction (d-U937 cells; test compound 1 μg/mL) [%] | % β-catenin induction (d-U937 cells; test compound 5 μg/mL) [%] | % β-catenin induction (d-U937 cells; test compound 10 μg/mL) [%] | IC50 (PBMCs) [nM]
1 | 11 | 18 | 8.6 | – | – | – | COc1c(NC(=O)Nc2ccc(Oc3ccnc(Nc4ccccc4)c3)c3ccccc23)cc(C(C)(C)C)cc1[S+](C)[O-] (racemic) [Example 12, 1-(5-(tert-Butyl)-2-methoxy-3-(methylsulfinyl)phenyl)-3-(4-((2-(phenylamino)pyridin-4-yl)oxy)naphthalen-1-yl)urea] | −0.5 | 5.0 | 6.0 | 8.6
2 | – | – | 2 | – | – | – | COCCOCCOCCOc1cc(Nc2cc(Oc3ccc(NC(=O)Nc4cc(C(C)(C)C)cc([S+](C)[O-])c4OC)c4ccccc34)ccn2)cc(OC)c1 (centres unmarked) [Example 17, 1-(5-(tert-Butyl)-2-methoxy-3-(methylsulfinyl)phenyl)-3-(4-((2-((3-methoxy-5-(2-(2-(2-methoxyethoxy)ethoxy)ethoxy)phenyl)amino)pyridin-4-yl)oxy)naphthalen-1-yl)urea] | −2.0 | −7.0 | −5.5 | 4.9
3 | 4.5 | 5.1 | – | – | – | – | COc1cc(Nc2cc(Oc3ccc(NC(=O)Nc4cc(C(C)(C)C)cc(P(C)(C)=O)c4OC)c4ccccc34)ccn2)cc(C(N)=O)c1 [Example 37, 3-((4-((4-(3-(5-(tert-butyl)-3-(dimethylphosphoryl)-2-methoxyphenyl)ureido)-naphthalen-1-yl)oxy)pyridin-2-yl)amino)-5-methoxybenzamide] | 2.0 | 15.5 | 25.5 | 0.7
4 | – | – | 3 | – | – | – | COc1cc(Nc2cc(Oc3ccc(NC(=O)Nc4cc(C(C)(C)C)cc([S+](C)[O-])c4OC)c4ccccc34)ccn2)cc(OC)c1 (centres unmarked) [Example 40, 1-(5-(tert-Butyl)-2-methoxy-3-(methylsulfinyl)phenyl)-3-(4-((2-((3,5-dimethoxyphenyl)amino)pyridin-4-yl)oxy)naphthalen-1-yl)urea] | −2.0 | −2.0 | −0.5 | 5.2
5 | – | – | 2.2 | – | – | – | COc1cccc(Nc2cc(Oc3ccc(NC(=O)Nc4cc(C(C)(C)C)cc([S+](C)[O-])c4OC)c4ccccc34)ccn2)c1 (centres unmarked) [Example 41, 1-(5-(tert-Butyl)-2-methoxy-3-(methylsulfinyl)phenyl)-3-(4-((2-((3-methoxyphenyl)amino)pyridin-4-yl)oxy)naphthalen-1-yl)urea] | −1.0 | −1.5 | 1.5 | 6.9
6 | – | – | 3.7 | – | – | – | COc1cccc(Nc2cc(Oc3ccc(NC(=O)Nc4cc(C(C)(C)C)cc(CNC(C)=O)c4OC)c4ccccc34)ccn2)c1 [Example 43, N-(5-(tert-Butyl)-2-methoxy-3-(3-(4-((2-((3-methoxyphenyl)amino)pyridin-4-yl)oxy)naphthalen-1-yl)ureido)benzyl)acetamide] | 7.5 | 19.5 | 20.5 | 2.8
7 | – | – | – | 10.7 (≈ 13.7 µM) | 11.2 (≈ 14.3 µM) | > 10 | COc1cc(Nc2cc(Oc3ccc(NC(=O)Nc4cc(C(C)(C)C)cc([S+](C)[O-])c4OC)c4ccccc34)ccn2)ccc1C(=O)NCCN1CCOCC1 (centres unmarked) [Example 72, 4-((4-((4-(3-(5-(tert-Butyl)-2-methoxy-3-(methylsulfinyl)phenyl)ureido)naphthalen-1-yl)oxy)pyridin-2-yl)amino)-2-methoxy-N-(2-morpholinoethyl)benzamide] | – | – | – | 7.5

The next lines start with the compound.

Row | Compound | Kd (p38 MAPK α) [nM] | Kd (Syk) [nM] | IC50 (HT29 cells) [nM] | solubility thermodynamic at 24 h [1, 2] [µg/mL] | solubility thermodynamic at 24 h [1, 3] [µg/mL] | solubility at 24 h [1] [µg/mL] | % β-catenin induction (d-U937 cells; test compound 1 μg/mL) [%] | % β-catenin induction (d-U937 cells; test compound 5 μg/mL) [%] | % β-catenin induction (d-U937 cells; test compound 10 μg/mL) [%] | IC50 (PBMCs) [nM]
8 | COCCOCCOCCOc1cc(Nc2cc(Oc3ccc(NC(=O)Nc4cc(C(C)(C)C)cc(C(=O)NCCN5CCOCC5)c4OC)c4ccccc34)ccn2)cc(OC)c1 [Example 16, 5-(tert-Butyl)-2-methoxy-3-(3-(4-((2-((3-methoxy-5-(2-(2-(2-methoxyethoxy)ethoxy)ethoxy)-phenyl)amino)pyridin-4-yl)oxy)naphthalen-1-yl)ureido)-N-(2-morpholinoethyl)benzamide] | – | – | 1.5 | – | – | – | 0.0 | −3.0 | −6.5 | 4.3
9 | COc1c(CS(C)(=O)=O)cc(C(C)(C)C)cc1NC(=O)Nc1ccc(Oc2ccnc(Nc3ccccc3)c2)c2ccccc12 [Example 19, 1-(5-(tert-Butyl)-2-methoxy-3-((methylsulfonyl)methyl)phenyl)-3-(4-((2-(phenylamino)pyridin-4-yl)oxy)naphthalen-1-yl)urea] | – | – | 8.6 | – | – | – | 2.5 | 9.0 | 13.0 | 26.8
10 | COc1cc(Nc2nccc(Oc3ccc(NC(=O)Nc4cc(C(C)(C)C)cc(OCP(C)(C)=O)c4OC)c4ccccc34)n2)cc(OC)c1 [Example 20, 1-(5-(tert-Butyl)-3-((dimethylphosphoryl)methoxy)-2-methoxyphenyl)-3-(4-((2-((3,5-dimethoxyphenyl)amino)pyrimidin-4-yl)oxy)naphthalen-1-yl)urea] | – | – | 3.3 | – | – | – | 2.5 | 20.5 | 16.5 | 7.9
11 | COc1cc(Nc2cc(Oc3ccc(NC(=O)Nc4cc(C(C)(C)C)cc(CNC(C)=O)c4OC)c4ccccc34)ccn2)cc(OC)c1 [Example 44, N-(5-(tert-Butyl)-3-(3-(4-((2-((3,5-dimethoxyphenyl)amino)pyridin-4-yl)oxy)naphthalen-1-yl)ureido)-2-methoxybenzyl)acetamide] | – | – | 5.2 | – | – | – | 5.0 | 8.0 | 11.0 | 2.3
12 | COc1cc(Nc2cc(Oc3ccc(NC(=O)Nc4cc(C(C)(C)C)cc(CC(N)=O)c4OC)c4ccccc34)ccn2)ccc1C(=O)NCC(CO)(CO)CO [Example 73, 4-((4-((4-(3-(3-(2-Amino-2-oxoethyl)-5-(tert-butyl)-2-methoxyphenyl)ureido)naphthalen-1-yl)oxy)pyridin-2-yl)amino)-N-(3-hydroxy-2,2-bis(hydroxymethyl)propyl)-2-methoxybenzamide] | – | – | – | 15.2 (≈ 19.5 µM) | 16.6 (≈ 21.3 µM) | > 10 | – | – | – | 6.3
13 | COCCOCCOCCNC(=O)c1cc(Nc2cc(Oc3ccc(NC(=O)Nc4cc(C(C)(C)C)cc(CNC(=O)CN(C)C)c4OC)c4ccccc34)ccn2)cc(OC)c1 [Example 77, 3-((4-((4-(3-(5-(tert-Butyl)-3-((2-(dimethylamino)acetamido)methyl)-2-methoxyphenyl)ureido)naphthalen-1-yl)oxy)pyridin-2-yl)amino)-5-methoxy-N-(2-(2-(2-methoxyethoxy)ethoxy)ethyl)benzamide] | – | – | – | 12.3 (≈ 14.2 µM) | 13 (≈ 15 µM) | > 10 | – | – | – | 2.3
